Experimental data: US11447445B2, “Diabetes and metabolic syndrome treatment with a novel dual modulator of soluble epoxide hydrolase and peroxisome proliferator-activated receptors” (priority 2015, dated 2022)
Values after ≈ are worked out from the molar mass of the structure shown. Like-named read-outs stand apart in the source and are kept apart here.

Tests used:
recombinant human sEH = target: T1, recombinant human sEH (Homo sapiens, UniProt P34913); assay: biochemical
T1 sequence (P34913 1-555): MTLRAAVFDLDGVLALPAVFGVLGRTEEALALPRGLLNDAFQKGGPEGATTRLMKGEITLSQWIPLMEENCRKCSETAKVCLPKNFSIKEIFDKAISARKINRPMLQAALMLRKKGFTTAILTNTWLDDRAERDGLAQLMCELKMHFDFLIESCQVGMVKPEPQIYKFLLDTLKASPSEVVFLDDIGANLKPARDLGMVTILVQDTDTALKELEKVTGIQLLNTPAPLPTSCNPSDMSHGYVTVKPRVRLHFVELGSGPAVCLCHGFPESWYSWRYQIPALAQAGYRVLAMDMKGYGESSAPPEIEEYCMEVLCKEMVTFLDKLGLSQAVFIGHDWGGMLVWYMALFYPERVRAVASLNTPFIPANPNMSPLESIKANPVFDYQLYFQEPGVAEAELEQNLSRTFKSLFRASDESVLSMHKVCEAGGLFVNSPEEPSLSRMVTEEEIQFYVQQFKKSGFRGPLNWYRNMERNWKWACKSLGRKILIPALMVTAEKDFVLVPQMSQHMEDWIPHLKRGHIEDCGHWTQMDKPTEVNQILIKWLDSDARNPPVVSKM

PPARα = target: T2, PPARα (Homo sapiens, UniProt Q07869); format: cell-based; conditions: for PPARα activation @10 μM: at 10 μM, compared to GW7647 1 μM
T2 construct: expressed in transfected cells; host or cells: COS-7
Procedure: (§1) COS-7 cells (PPAR) were grown in DMEM high glucose, supplemented with 10% fetal calf serum (FCS), 1% sodium pyruvate (SP) and 1% penicillin/streptomycin (PS) at 37° C. and 5% CO2. Used plasmids for PPAR transactivation assay are shown under supporting informations.
(§2) The day before transfection, COS-7 cells were seeded in 96-well plates with a density of 30,000 cells per well. Transient transfection was carried out using Lipofectamine LTX reagent (Invitrogen, Carlsbad, Calif., USA) according to the manufacturer's protocol with pFR-Luc (Stratagene), pRL-SV40 (Promega) and the Ga14-fusion receptor plasmids (pFA-CMV-hPPAR-LBD) of the respective PPAR subtype. 5 h after transfection, medium was changed to DMEM without phenol red and 10% FCS, supplemented with 1% SP, 1% PS and 1% L-glutamine, now additionally containing 0.1% DMSO and the respective test compound or 0.1% DMSO alone as untreated control. Each concentration was tested in triplicate wells and each experiment was repeated independently at least three times. Following overnight incubation with the test compounds, cells were assayed for luciferase activity using Dual-Glo™ Luciferase Assay System (Promega) according to the manufacturer's protocol. Luminescence was measured with an Infinite m200 luminometer (Tecan Deutschland GmbH). Each concentration of the compounds was tested in triplicate wells. Normalization for transfection efficacy and cell growth was done by division of the firefly luciferase data by renilla luciferase data resulting in relative light units. Activation factors were obtained by dividing by DMSO control. […] All compounds were evaluated by comparison of the achieved maximum effect to that of the reference compound (pioglitazone for PPARγ, GW7647 for PPARa, and L165041 for PPARS each with 1 μM). Data are expressed as mean±SE; n≥3.
(§3) The Gal4-fusion receptor plasmids pFA-CMV-PPARa-LBD, pFA-CMV-PPARS-LBD and pFA-CMV-PPARγ-LBD containing the hinge region and ligand binding domain (LBD) for each of the PPAR subtypes, respectively, were constructed by integrating cDNA fragments obtained from PCR amplification of human monocytes into the SmaI/XbaI cleavage site of the pFA-CMV vector (Stratagene, La Jolla, Calif., USA) and have already been published. […] Frame and sequence of the fusion receptors were verified by sequencing. pFR-Luc (Stratagene) was used as reporter plasmid and pRL-SV40 (Promega) for normalization of transfection efficacy and cell growth.

PPARδ = target: T3, PPARδ (Homo sapiens, UniProt Q03181); assay: PPAR transactivation assay in COS-7 cells (Gal4-hPPAR-LBD, luciferase); format: cell-based
T3 construct: expressed in transfected cells; host or cells: COS-7
Procedure: as §1, §2, §3

[1] = Water solubility approximation; format: physicochemical; conditions: PBS with 0.01% Polysorbate 20, aqueous with cosolvent or surfactant or cyclodextrin, kinetic from dmso stock; PBS pH 7.4, 0.01% Polysorbate 20, 1% DMSO; precipitation at 650 nm; read-out: w.s. (water solubility)
Procedure: PBS at pH 7.4 with 0.01% Polysorbate 20 (Tween) was combined with 1% of a DMSO solution of the inquired compound in a 96-well transparent flat bottom microtiter plate. Precipitation of the compound was measured at 650 nm with a Tecan Infinite 200 (Tecan Group Ltd, Mannedorf, Switzerland).

[2] = at 10 μM, read-out: sEH inhibition @10 μM (converted)

T2 sequence (Q07869 239-466): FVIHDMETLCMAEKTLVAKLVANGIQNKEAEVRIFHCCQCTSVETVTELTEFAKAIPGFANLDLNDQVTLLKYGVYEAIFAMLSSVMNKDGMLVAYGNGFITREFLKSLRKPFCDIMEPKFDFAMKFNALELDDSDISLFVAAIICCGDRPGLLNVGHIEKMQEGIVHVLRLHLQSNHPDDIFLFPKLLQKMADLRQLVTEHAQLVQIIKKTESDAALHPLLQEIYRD
T3 sequence (Q03181 211-439): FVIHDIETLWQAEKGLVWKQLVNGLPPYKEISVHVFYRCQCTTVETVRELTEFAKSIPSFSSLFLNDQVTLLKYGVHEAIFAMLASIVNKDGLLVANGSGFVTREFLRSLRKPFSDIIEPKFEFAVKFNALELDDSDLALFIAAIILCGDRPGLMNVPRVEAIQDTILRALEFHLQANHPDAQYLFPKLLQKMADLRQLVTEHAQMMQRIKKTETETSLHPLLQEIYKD

| SMILES | IC50 (recombinant human sEH; read-out: IC50 sEH (converted)) | EC50 PPARα (PPARα; i.a. = inactive) | EC50 PPARδ (PPARδ; i.a. = inactive) | solubility [1] | further results |
| --- | --- | --- | --- | --- | --- |
| CCOC(=O)/C(=C/c1ccc(C(=O)NCc2ccccc2C(F)(F)F)cc1)CC [Compound 1a] | 63 ± 3 nM | i.a. | i.a. | – | – |
| CC/C(=C\c1ccc(C(=O)NCc2ccccc2C(F)(F)F)cc1)C(=O)O [Compound 1d, (E)-4-[N-((2-Trifluoromethyl)benzyl)benzamide]-alpha-ethylcinnamic acid] | 120 ± 10 nM | i.a. | i.a. | – | – |
| CCC(Cc1ccc(C(=O)NCc2ccccc2)cc1)C(=O)O (stereo not shown) [Compound 2c, 2-Ethyl 3-[4-(N-benzylbenzamide)]propionic acid] | – | – | – | – | inhibition at 10 µM (recombinant human sEH; read-out: sEH inhibition @10 μM): 4%; EC50 PPARα (PPARα): n.t. i.a. i.a. n.t.; EC50 PPARδ (PPARδ): n.t. i.a. i.a. n.t. |
| CCC(Cc1ccc(C(=O)NCc2ccccc2C)cc1)C(=O)O (stereo not shown) [Compound 3c, 2-Ethyl 3-[4-(N-((2-methyl)benzyl)benzamide)]propionic acid] | – | i.a. | n.t. i.a. i.a. n.t. | – | inhibition at 10 µM (recombinant human sEH; [2]): 25% |
| CCC(Cc1ccc(C(=O)NCc2ccccc2Cl)cc1)C(=O)O (stereo not shown) [Compound 4c, 2-Ethyl 3-[4-(N-((2-chloro)benzyl)benzamide)]propionic acid] | – | n.t. i.a. i.a. n.t. | n.t. i.a. i.a. n.t. | – | inhibition at 10 µM (recombinant human sEH; [2]): 20% |
| CCC(Cc1ccc(C(=O)NCc2ccccc2Br)cc1)C(=O)O (stereo not shown) [Compound 5c, 2-Ethyl 3-[4-(N-((2-bromo)benzyl)benzamide)]propionic acid] | – | n.t. i.a. i.a. n.t. | n.t. i.a. i.a. n.t. | 500 µM (≈ 195 µg/mL) | inhibition at 10 µM (recombinant human sEH; [2]): 34% |
| CCOC(=O)/C(=C/c1ccc(C(=O)NCc2ccccc2OC(F)(F)F)cc1)CC [Compound 6a, Ethyl (E)-4-[N-((2-trifluoromethoxy)benzyl)benzamide]-alpha-ethylcinnamate] | 60 ± 13 nM | – | – | 10 µM (≈ 4.21 µg/mL) | – |
| CCOC(=O)C(CC)Cc1ccc(C(=O)NCc2ccccc2OC(F)(F)F)cc1 (stereo not shown) [Compound 6b, Ethyl 2-ethyl 3-[4-(N-((2-trifluoromethoxy)benzyl)benzamide)]propanoate] | – | n.t. i.a. i.a. n.t. | n.t. i.a. i.a. n.t. | 100 µM (≈ 42.3 µg/mL) | – |
| CCC(Cc1ccc(C(=O)NCc2ccc(F)cc2)cc1)C(=O)O (stereo not shown) [Compound 7c, 2-Ethyl 3-[4-(N-((4-fluoro)benzyl)benzamide)]propionic acid] | – | n.t. i.a. i.a. n.t. | n.t. i.a. i.a. n.t. | – | inhibition at 10 µM (recombinant human sEH; [2]): 28% |
| CC/C(=C\c1ccc(C(=O)NCc2ccc(C(F)(F)F)cc2)cc1)C(=O)O [Compound 8d, (E)-4-[N-((4-Trifluoromethyl)benzyl)benzamide]-alpha-ethylcinnamic acid] | 2800 nM | – | – | 500 µM (≈ 189 µg/mL) | – |
| CCOC(=O)/C(=C/c1ccc(C(=O)NCc2ccc(OC)cc2)cc1)CC [Compound 10a, Ethyl (E)-4-[N-((4-methoxy)benzyl)benzamide]-alpha-ethylcinnamate] | – | – | – | 10 µM (≈ 3.67 µg/mL) | IC50 (recombinant human sEH): 550 nM |
| CCOC(=O)C(CC)Cc1ccc(C(=O)NCc2ccc(OC)cc2)cc1 (stereo not shown) [Compound 10b, Ethyl 2-ethyl 3-[4-(N-((4-methoxy)benzyl)benzamide)]propanoate] | – | n.t. i.a. i.a. n.t. | n.t. i.a. i.a. n.t. | 10 µM (≈ 3.69 µg/mL) | – |
| CCOC(=O)/C(=C/c1ccc(C(=O)NCc2ccc(Cl)cc2)cc1)CC [Compound 11a, Ethyl (E)-4-[N-((4-chloro)benzyl)benzamide]-alpha-ethylcinnamate] | 3000 ± 1400 nM | – | – | 10 µM (≈ 3.72 µg/mL) | – |
| CCOC(=O)C(CC)Cc1ccc(C(=O)NCc2ccc(Cl)cc2)cc1 (stereo not shown) [Compound 11b, Ethyl 2-ethyl 3-[4-(N-((4-chloro)benzyl)benzamide)]propanoate] | – | n.t. i.a. i.a. n.t. | n.t. i.a. i.a. n.t. | 10 µM (≈ 3.74 µg/mL) | – |
| CCC(Cc1ccc(C(=O)NCc2ccc(Cl)cc2)cc1)C(=O)O (stereo not shown) [Compound 11c, 2-Ethyl 3-[4-(N-((4-chloro)benzyl)benzamide)]propionic acid] | – | n.t. i.a. i.a. n.t. | n.t. i.a. i.a. n.t. | 500 µM (≈ 173 µg/mL) | – |
| CC/C(=C\c1ccc(C(=O)NCc2ccc(Cl)cc2)cc1)C(=O)O [Compound 11d, (E)-4-[N-((4-Chloro)benzyl)benzamide]-alpha-ethylcinnamic acid] | 5000 nM | – | – | 100 µM (≈ 34.4 µg/mL) | – |
| CCOC(=O)C(CC)Cc1ccc(C(=O)NCc2ccc(OC)cc2C(F)(F)F)cc1 (stereo not shown) [Compound 14b, Ethyl 2-ethyl 3-[4-(N-(4-methoxy(2-trifluoromethyl)benzyl)benzamide)]propanoate] | – | – | n.t. i.a. i.a. n.t. | – | PPARα activation @10 μM (PPARα): 22% |
| CCOC(=O)C(CC)Cc1cccc(C(=O)NCc2ccccc2C(F)(F)F)c1 (stereo not shown) [Compound 15b, Ethyl 2-ethyl 3-[3-(N-((2-trifluoromethyl)benzyl)benzamide)]propanoate] | 27 ± 2 nM | i.a. | i.a. | – | – |
| CCC(Cc1cccc(C(=O)NCc2ccccc2C(F)(F)F)c1)C(=O)O (stereo not shown) [Compound 15c, 2-Ethyl 3-[3-(N-((2-trifluoromethyl)benzyl)benzamide)]propionic acid] | 900 ± 80 nM | – | i.a. | – | PPARα activation @10 μM (PPARα): @10 μM (34%) |
| CCOC(=O)/C(C)=C/c1ccc(C(=O)NCc2ccccc2C(F)(F)F)cc1 [Compound 17a, Ethyl (E)-4-[N-((2-trifluoromethyl)benzyl)benzamide]-alpha-methylcinnamate] | 100 ± 30 nM | – | – | 10 µM (≈ 3.91 µg/mL) | – |
| C/C(=C\c1ccc(C(=O)NCc2ccccc2C(F)(F)F)cc1)C(=O)O [Compound 17d, (E)-4-[N-((2-Trifluoromethyl)benzyl)benzamide]-alpha-methylcinnamic acid] | 4900 ± 60 nM | – | – | 500 µM (≈ 182 µg/mL) | – |
| CCC/C(=C\c1ccc(C(=O)NCc2ccccc2C(F)(F)F)cc1)C(=O)OCC [Compound 18a, Ethyl (E)-4-[N-((2-trifluoromethyl)benzyl)benzamide]-alpha-propylcinnamate] | 160 ± 60 nM | – | – | 10 µM (≈ 4.19 µg/mL) | – |
| CCC/C(=C\c1ccc(C(=O)NCc2ccccc2C(F)(F)F)cc1)C(=O)O [Compound 18d, (E)-4-[N-((2-Trifluoromethyl)benzyl)benzamide]-alpha-propylcinnamic acid] | 700 ± 60 nM | – | – | 5 µM (≈ 1.96 µg/mL) | – |
| CCOC(=O)/C(=C/c1ccc(C(=O)NCc2ccccc2C(F)(F)F)cc1)c1ccccc1 [Compound 19a, Ethyl (E)-4-[N-((2-trifluoromethyl)benzyl)benzamide]-alpha-phenylcinnamate] | 160 ± 30 nM | – | – | 1 µM (≈ 0.453 µg/mL) | – |
| O=C(O)/C(=C/c1ccc(C(=O)NCc2ccccc2C(F)(F)F)cc1)c1ccccc1 [Compound 19d, (E)-4-[N-((2-Trifluoromethyl)benzyl)benzamide]-alpha-phenylcinnamic acid] | 800 ± 10 nM | – | – | 50 µM (≈ 21.3 µg/mL) | – |
| O=C(NCc1ccccc1C(F)(F)F)c1ccc(C2CC2C(=O)O)cc1 (stereo not shown) [Compound 22, 2-[4-(N-((2-trifluoromethyl)benzyl)benzamide)]cyclopropan carboxylic acid] | 5500 ± 200 nM | i.a. | i.a. | – | – |
